SMILES strings stand for the structures.

Usually melting point stands for the temperature of the solid-liquid transition.

Compound `CCCn1cc2c(n1)-c1c(nc3ccccc3c1N)CC2` came in with a melting point of 225 to 226 °C. To `CC(C)(C)N(Cc1ccccc1)CC(O)COc1cccc2c1CNC(=O)N2` (configuration not stated) belongs 215 to 217 °C. To `CCCc1c(OCCCC(=O)NC(C)CCCc2cccnc2)ccc(C(C)=O)c1O` (configuration not stated) belongs 97 to 99 °C. Turning to `Nc1cccc(-c2cccc(CC3CCCC3NCCc3ccccc3)c2)n1` (configuration not stated), the melting point is 110 to 130 °C. Regarding `COCCOc1cc(/C=C/C(=O)NS(=O)(=O)CCC(C)C)n(Cc2ccc(Cl)cc2Cl)n1`, the melting point is 110 to 114 °C. In turn, `CCCCC(CC)COc1ccc2c(-c3ccc(CBr)cc3)c3cc(OCC(CC)CCCC)ccc3c(-c3ccc(CBr)cc3)c2c1` (configuration not stated) yielded a melting point of 105 to 107 °C. For `CC1(C)CCC(C)(C#N)c2ccccc21` (configuration not stated), the melting point came to 46 °C. To `COc1cc2c(c3c1OC(C)(C)C3)C(c1ccc(=O)[nH]c1)=NC(C)(C)C2` belongs 195 to 196 °C. To `O=C1c2ccccc2C(=O)N1CCNOCc1ccccc1` belongs 89 to 91 °C; to `Cc1nc(N2CCN(CC3CC3)C2=O)sc1C(=O)NCc1ncccn1`, 218 to 220 °C; to `COc1cc2c(cc1OC)C(c1ccccc1)N1C(=O)CNC(=O)C1C2` (configuration not stated), 265 to 267 °C. Turning to `Nc1cccc(-c2nc3n(n2)Cc2ccccc2-3)c1`, the melting point is 163 to 164 °C. `NC(=O)c1ccc(-c2cccc3cc(Cc4cccc(C(F)(F)F)c4)sc23)cn1` displayed a melting point of 144 to 145 °C. Next, `CC(=O)c1ccc(-c2nn(C(C)c3oc4ccccc4c(=O)c3-c3cccc(F)c3)c3ncnc(N)c23)cc1` (configuration not stated): 218 to 221 °C. Next, `Cn1ccc2cccc(C(=O)N3CCN(c4ncccn4)CC3)c21`: 159 to 160 °C; `Nc1nc(-n2cc(C(=O)O)c(=O)c3cc(F)c(F)c(Cl)c32)ncc1F`: 242 to 246 °C. To `O=c1c2cc(F)c(N3CCCC3)cc2n(-c2ccccc2F)c(=O)n1O` belongs 235 to 237 °C. In turn, `c1coc(-c2ccc(-c3cn([C@H]4CN5CCC4CC5)nn3)s2)c1` registered a melting point of 180 °C. Next, `CC(C)(C)OC(=O)Nc1ccc(CN2OCC(C)(C)C2=O)c(Cl)c1`: 124 to 126 °C. Next, `Nc1nsc(Nc2c(Cl)cccc2Cl)n1`: 178 to 179 °C; `COc1cc(Oc2cccc(C(F)(F)F)c2)nc(C(=O)NCc2ccccc2)c1`: 87 to 92 °C; `CCN1C(Cl)=NC(OC)=NS1(=O)=O`: 63 to 70 °C.

The compound `NC(N)=NC(=O)c1ccccc1Sc1ccccc1C(=O)N=C(N)N` registered a melting point above 220 °C.

`CCCCc1nn(-c2cc(NC(=O)CC)ccc2C(F)(F)F)c(=O)n1Cc1ccc(-c2ccccc2S(=O)(=O)NC(=O)OC(C)(C)C)cc1F` showed a melting point of 167 to 169 °C. To `CCC(CC)(CC(=O)Nc1cccc(SCc2ccc3cccc(F)c3n2)c1)C(=O)O` belongs 80 to 83 °C; to `O=C1N(c2cc(Cl)cc(Cl)c2)C(=O)C2(Cc3ccc(Br)cc3)CCC(c3ccccc3)N12` (configuration not stated), 72.4 °C; to `CC(C)c1ccc(N(Cc2cnn(CC(=O)O)c2)C(=O)C2CCCc3c(OCc4ccccc4)cccc32)cc1` (configuration not stated), 180 to 182 °C. As to `Cn1c2c(c3cccc(-c4ccccc4)c31)C(=O)NCC2`, the melting point lay within 242 to 245 °C.

Turning to `O=C(Nc1ccc(Oc2ccnc(NCCN3CCOCC3)n2)c2ccccc12)c1cc(F)cc(N2CCOCC2)c1`, the melting point lay in the range of 112 to 114 °C.

`CCNC(=O)c1cccc(-c2ccc3ncn(CCc4ccc(OC)c(OC)c4)c3n2)c1` returned a melting point of 152 to 153 °C. To `COc1ccc(-c2cc(C(F)F)nn2-c2ccc(S(N)(=O)=O)cc2)cc1I` belongs 135 to 137 °C; to `N#CCCn1cccc1C1=CC(=O)c2ccccc2C1=O`, 127 to 128 °C. In turn, `CCOC(=O)c1ccc(-c2ccc(OCCCNC3CC3)c(-c3ccc4c(c3)C(C)(C)CCC4(C)C)c2)cc1` yielded a melting point of 141 °C. `COc1ccc(CNc2nc(SC)ncc2C=O)cc1Cl` came in with a melting point of 124 to 125 °C.

Compound `Cc1ccc(-c2csc(NS(=O)(=O)c3ccc(C)cc3)n2)cc1` came in with a melting point of 186 to 189 °C. To `Cc1ccc(-n2nc3c4cc(Br)ccc4[nH]c(=O)n3c2=O)cc1` belongs 369 °C; to `COc1ccc2c(c1)c1c3c(c(-c4c(Cl)cccc4OC)cc1n2CCCO)C(=O)NC3=O`, 224 to 227 °C; to `COc1ccccc1CNC(=O)c1ccc2nc(N[C@@H]3CCc4ccccc43)ccc2c1`, 168 °C.

As to `COc1ccccc1-c1nc2ccc(C(=O)O)cc2c(=O)[nH]1`, the melting point lay in the range of 295 to 297 °C.

In turn, `O=C(O)Cc1ccc(Oc2ccc(Cl)nn2)cc1` showed a melting point of 124 to 127 °C. To `O=P(O)(O)Cc1ccc(CP(=O)(O)O)cc1` belongs above 300 °C; to `Cc1cc(C)c(N2CCCc3c2nn(C)c3NC(=O)OC(C)(C)C)c(Cl)c1`, 171 to 176 °C. Next, `COc1ccc(S(=O)(=O)C2(C(=O)NO)CCCC2)cc1`: 89 to 91 °C. Regarding `CCCN(CCC)Cc1coc(-c2ncn3c2CN(C)C(=O)c2c(Cl)cccc2-3)n1`, the melting point fell in the range of 105 to 107 °C. The compound `CNC(=O)N1CCC(CN2CCC(NC(=O)c3cc(Cl)c(N)cc3OC)CC2)CC1` returned a melting point of 202 to 204 °C. In turn, `COc1ccc([C@]2(C)CNC(=O)O2)cc1OCC(C)C` registered a melting point of 93.7 °C. `CC(C)(C)OC(=O)CN1CC(c2cccc3ccccc23)SCC(N2C(=O)c3ccccc3C2=O)C1=O` (configuration not stated) registered a melting point of 211 to 213 °C. As to `CCOC(=O)NC1=C(C(=O)OCC)CCC1`, the melting point is 49 to 51 °C. In turn, `Cn1cc(C2=C(n3ccc4ccccc43)C(=O)NC2=O)c2ccccc21` registered a melting point of 235 to 236 °C. Next, `Oc1ccc2c(c1)OC1(CCCCCC1)O2`: 80 to 82 °C.

On to `CCCCCCCCCC(=O)N(O)CCCCCC`, for which the melting point stood at 37 °C. `CC(=O)OCC1CN(C(=O)OC(C)(C)C)c2cc(OCc3ccccc3)c3ncccc3c21` (configuration not stated) displayed a melting point of 172 to 173 °C. Next, `CCCCC(CC)COc1ccc2c(Br)c3cc(OCC(CC)CCCC)ccc3c(Br)c2c1` (configuration not stated): 103 to 105 °C. Next, `Cc1cc(F)ccc1C(=Cc1nnnn1C)c1ccc(F)cc1C`: 120 to 125 °C; `N#CCNC(=O)C1(NC(=O)c2ccc(C3CCN(C4CCCC4)CC3)cc2)CCCCC1`: 233 to 234 °C; `O=C1Nc2ccccc2C12CCNCC2`: 184 to 186 °C. To `CN1CCCC(NC(=O)c2ccc3[nH]ncc3c2)C1` (configuration not stated) belongs 228 to 229 °C; to `CCCOc1ccc(CSc2nc(SC)n(CC)c(=O)c2C)cc1`, 91 to 93 °C; to `Cc1cc2ccc(CCCCCN3CCN(c4cccc(Cl)c4Cl)CC3)nc2[nH]c1=O`, 157 to 158 °C. Turning to `Cc1ccc(Cl)c(Nc2ccccc2C(N)=O)c1Cl`, the melting point was in the range of 185 to 187 °C.

`COC1=CC23CCN(C)C(Cc4ccc(OC)c(Oc5ccccc5)c42)C3=CC1C` (configuration not stated) returned a melting point of 177 to 178 °C.

With `CN1C(=O)C(c2ccc(OC(F)F)cc2)(c2cccc(C(F)CCCF)c2)N=C1N` (configuration not stated), the melting point was 54 to 57 °C. Next, `COc1ccc(C(=C2CCCCC2)c2ccc(OC)cc2)cc1`: 106 to 107 °C. Turning to `CC(=O)Nc1ccc(Oc2c(NCc3ccccc3)cc(C(=O)O)cc2S(N)(=O)=O)cc1`, the melting point came out at 255 °C.

Turning to `COc1ccc2c(c1)OC[C@@H]1CCCN1C2=O`, the melting point is 104 to 106 °C. `CNS(=O)(=O)c1ccc(NN=C2C(=O)Nc3ccc(C(N)=O)cc32)cc1`: the melting point was above 250 °C. To `CS(=O)(=O)OCC1OC2CC(CC(OS(C)(=O)=O)C2)O1` (configuration not stated) belongs 137 to 138 °C. To `Cc1cc(-n2ccc(OCCCO)cc2=O)sc1C(=O)NCc1cccc(F)c1` belongs 135 to 137 °C; to `CCOC(=O)c1[nH]c2ccc(F)cc2c1N`, 77 to 78 °C.

`CC(C)(C)c1cc2c(c(C(C)(C)C)c1)OC(=O)C2c1ccc2c(c1)-c1ccccc1C2` (configuration not stated) registered a melting point of 140 to 153 °C.

Take `CC(=O)c1ccc2c(c1)NC(NC(C)C)=NS2(=O)=O`: the melting point fell in the range of 305 to 308 °C.

`COC(=O)c1ccc(Oc2ccc(Oc3ccccc3)cc2)cc1` came in with a melting point of 14 °C.

`O=C(c1cccc(Cl)c1)C1C(=O)c2ccccc2C1=O`: the melting point was 148 to 149 °C. In turn, `O=C(c1ccc(C2CCCCC2)cc1)c1cccnc1` came in with a melting point of 52 to 54 °C. The compound `OCCOCC=C(c1ccc(Cl)cc1)c1ccc(Cl)cc1` displayed a melting point of 93 to 95 °C. Compound `CCOC(=O)c1cn2c(n1)CN(C(=O)OCC)c1ccccc1-2` displayed a melting point of 151 to 153 °C.

`Cc1oc(-c2ccccc2)nc1C(=O)COc1ccc(CC2SC(=O)NC2=O)cc1` (configuration not stated) returned a melting point of 168 to 169 °C. Next, `COc1cccc2c(=O)n3c(cc12)SCCC3`: 117 to 118 °C; `CSc1nc(C)ccc1NC(=O)CCCCCSc1nc2ccccc2[nH]1`: 138 to 140 °C. The compound `CC(C)CN(CC(C)C)S(=O)(=O)N[C@@H](Cc1ccc(NC(=O)c2c(Cl)cncc2Cl)cc1)C(=O)O` displayed a melting point of 209 °C. `CCN(CC)c1ccc(-c2cc(-c3ccc(C(=O)O)cc3)ccc2CCCNC2CCCCC2)cc1C(C)(C)C` yielded a melting point of 253 °C. To `CCOC(=O)c1c(C)ncn(-c2ccc(Cl)cc2)c1=O` belongs 98 to 100 °C; to `CN1CCN(c2ccnc3c(NC(=O)c4c(Cl)cccc4Cl)cc(C(F)(F)F)cc23)C1=O`, above 285 °C.

Compound `CC(C)n1nc(-c2c(-c3ccccc3)nc(N)nc2N2CCOCC2)ccc1=O` registered a melting point of 251 to 253 °C. Next, `CCOC(=O)CN(CC1CC2c3cccc4[nH]cc(c34)CC2N(C)C1)C(=O)NC(C)C` (configuration not stated): 118 to 120 °C. The compound `CCn1ncc2c3[nH]c4ccnn4c(=O)c3cnc21` gave a melting point above 300 °C. Turning to `CON1C=C2N=NC3=C(N2C1)N(c1ccccn1)CC(C1CC1)=C3`, the melting point fell in the range of 162 to 164 °C.
